Data taken from the supplement of paper PMC10307832.

Assays:
Test in all cases: relative viability (nuclei count vs DMSO), 5 days (fraction); higher = more cells survive
[1] = compound: CC1=CC=C(C=C1)C(=O)CN2C3=C(CCCC3)SC2=N [Pifithrin_alpha] + Cc1cc(Nc2cc(N3CCN(C)CC3)nc(Sc3ccc(NC(=O)C4CC4)cc3)n2)n[nH]1 [Tozasertib] (partner 0.1 µM)
In short: (§1)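 Lung cancer cell lines in 1536-well plates got either a single drug or a fixed anchor-drug dose together with five library-drug doses (not always all listed) in √10 steps, by pin tool, on the day after seeding. Nuclei were counted after 5 days, and relative viability is the treated-to-vehicle ratio of nuclei counts. Values are medians of duplicate plates.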

Axitinib + Luminespib = compound: CNC(=O)c1ccccc1Sc1ccc2c(/C=C/c3ccccn3)n[nH]c2c1 [Axitinib] + CCNC(=O)c1noc(-c2cc(C(C)C)c(O)cc2O)c1-c1ccc(CN2CCOCC2)cc1 [Luminespib] (partner 0.01 µM)
In short: as §1

Axitinib + Tozasertib = compound: CNC(=O)c1ccccc1Sc1ccc2c(/C=C/c3ccccn3)n[nH]c2c1 [Axitinib] + Cc1cc(Nc2cc(N3CCN(C)CC3)nc(Sc3ccc(NC(=O)C4CC4)cc3)n2)n[nH]1 [Tozasertib] (partner 0.1 µM)
In short: as §1

Bemcentinib + AZD7762 = compound: Nc1nc(Nc2ccc3c(c2)CC[C@@H](N2CCCC2)CC3)nn1-c1cc2c(nn1)-c1ccccc1CCC2 [Bemcentinib] + NC(=O)Nc1cc(-c2cccc(F)c2)sc1C(=O)N[C@H]1CCCNC1 [AZD7762] (partner 0.2 µM)
In short: as §1

NCI-H647
relative viability ([1]; first compound 1 µM): 0.339 | relative viability ([1]; first compound 3.162 µM): 0.382 | relative viability ([1]; first compound 10 µM): 0.288 | relative viability ([1]; first compound 31.62 µM): 0.188 | relative viability ([1]; first compound 100 µM): 0.145 | relative viability (Axitinib + Luminespib; first compound 0.005 µM): 0.292 | relative viability (Axitinib + Luminespib; first compound 0.01581 µM): 0.167 | relative viability (Axitinib + Luminespib; first compound 0.05 µM): 0.168 | relative viability (Axitinib + Luminespib; first compound 0.1581 µM): 0.227 | relative viability (Axitinib + Luminespib; first compound 0.5 µM): 0.285 | relative viability (Axitinib + Tozasertib; first compound 0.005 µM): 0.383 | relative viability (Axitinib + Tozasertib; first compound 0.01581 µM): 0.354 | relative viability (Axitinib + Tozasertib; first compound 0.05 µM): 0.264 | relative viability (Axitinib + Tozasertib; first compound 0.1581 µM): 0.566 | relative viability (Axitinib + Tozasertib; first compound 0.5 µM): 0.516 | relative viability (Bemcentinib + AZD7762; first compound 0.04 µM): 0.346 | relative viability (Bemcentinib + AZD7762; first compound 0.1265 µM): 0.539 | relative viability (Bemcentinib + AZD7762; first compound 0.4 µM): 0.498 | relative viability (Bemcentinib + AZD7762; first compound 1.265 µM): 0.511 | relative viability (Bemcentinib + AZD7762; first compound 4 µM): 0.31

NCI-H1915
relative viability ([1]; first compound 1 µM): 0.454 | relative viability ([1]; first compound 3.162 µM): 0.465 | relative viability ([1]; first compound 100 µM): 0.399 | relative viability (Axitinib + Luminespib; first compound 0.005 µM): 0.787 | relative viability (Axitinib + Luminespib; first compound 0.01581 µM): 0.795 | relative viability (Axitinib + Luminespib; first compound 0.05 µM): 0.902 | relative viability (Axitinib + Luminespib; first compound 0.1581 µM): 0.84 | relative viability (Axitinib + Luminespib; first compound 0.5 µM): 0.861 | relative viability (Axitinib + Tozasertib; first compound 0.005 µM): 0.458 | relative viability (Axitinib + Tozasertib; first compound 0.01581 µM): 0.491 | relative viability (Axitinib + Tozasertib; first compound 0.05 µM): 0.443 | relative viability (Axitinib + Tozasertib; first compound 0.1581 µM): 0.464 | relative viability (Axitinib + Tozasertib; first compound 0.5 µM): 0.655 | relative viability (Bemcentinib + AZD7762; first compound 0.04 µM): 0.671 | relative viability (Bemcentinib + AZD7762; first compound 0.1265 µM): 0.695 | relative viability (Bemcentinib + AZD7762; first compound 0.4 µM): 0.701 | relative viability (Bemcentinib + AZD7762; first compound 1.265 µM): 0.726 | relative viability (Bemcentinib + AZD7762; first compound 4 µM): 0.652

NCI-H1944
relative viability ([1]; first compound 1 µM): 0.236 | relative viability ([1]; first compound 3.162 µM): 0.225 | relative viability ([1]; first compound 10 µM): 0.23 | relative viability ([1]; first compound 31.62 µM): 0.191 | relative viability ([1]; first compound 100 µM): 0.19 | relative viability (Axitinib + Luminespib; first compound 0.005 µM): 0.755 | relative viability (Axitinib + Luminespib; first compound 0.01581 µM): 0.726 | relative viability (Axitinib + Luminespib; first compound 0.05 µM): 0.717 | relative viability (Axitinib + Luminespib; first compound 0.1581 µM): 0.738 | relative viability (Axitinib + Luminespib; first compound 0.5 µM): 0.769 | relative viability (Axitinib + Tozasertib; first compound 0.005 µM): 0.238 | relative viability (Axitinib + Tozasertib; first compound 0.01581 µM): 0.258 | relative viability (Axitinib + Tozasertib; first compound 0.05 µM): 0.264 | relative viability (Axitinib + Tozasertib; first compound 0.1581 µM): 0.263 | relative viability (Axitinib + Tozasertib; first compound 0.5 µM): 0.297 | relative viability (Bemcentinib + AZD7762; first compound 0.04 µM): 0.645 | relative viability (Bemcentinib + AZD7762; first compound 0.1265 µM): 0.563 | relative viability (Bemcentinib + AZD7762; first compound 0.4 µM): 0.488 | relative viability (Bemcentinib + AZD7762; first compound 1.265 µM): 0.452 | relative viability (Bemcentinib + AZD7762; first compound 4 µM): 0.32

HARA
relative viability ([1]; first compound 3.162 µM): 0.107 | relative viability ([1]; first compound 10 µM): 0.117 | relative viability ([1]; first compound 100 µM): 0.0634 | relative viability (Axitinib + Luminespib; first compound 0.005 µM): 0.791 | relative viability (Axitinib + Luminespib; first compound 0.01581 µM): 0.823 | relative viability (Axitinib + Luminespib; first compound 0.05 µM): 0.901 | relative viability (Axitinib + Luminespib; first compound 0.1581 µM): 0.721 | relative viability (Axitinib + Luminespib; first compound 0.5 µM): 0.639 | relative viability (Axitinib + Tozasertib; first compound 0.005 µM): 0.125 | relative viability (Axitinib + Tozasertib; first compound 0.01581 µM): 0.0963 | relative viability (Axitinib + Tozasertib; first compound 0.05 µM): 0.0847 | relative viability (Axitinib + Tozasertib; first compound 0.1581 µM): 0.106 | relative viability (Axitinib + Tozasertib; first compound 0.5 µM): 0.123 | relative viability (Bemcentinib + AZD7762; first compound 0.04 µM): 0.326 | relative viability (Bemcentinib + AZD7762; first compound 0.1265 µM): 0.26 | relative viability (Bemcentinib + AZD7762; first compound 0.4 µM): 0.345 | relative viability (Bemcentinib + AZD7762; first compound 1.265 µM): 0.185 | relative viability (Bemcentinib + AZD7762; first compound 4 µM): 0.258

NCI-H2347
relative viability ([1]; first compound 1 µM): 0.614 | relative viability ([1]; first compound 3.162 µM): 0.543 | relative viability ([1]; first compound 10 µM): 0.382 | relative viability ([1]; first compound 31.62 µM): 0.412 | relative viability ([1]; first compound 100 µM): 0.501 | relative viability (Axitinib + Luminespib; first compound 0.005 µM): 0.299 | relative viability (Axitinib + Luminespib; first compound 0.01581 µM): 0.432 | relative viability (Axitinib + Luminespib; first compound 0.05 µM): 0.948 | relative viability (Axitinib + Luminespib; first compound 0.1581 µM): 0.323 | relative viability (Axitinib + Luminespib; first compound 0.5 µM): 0.505 | relative viability (Axitinib + Tozasertib; first compound 0.005 µM): 0.589 | relative viability (Axitinib + Tozasertib; first compound 0.01581 µM): 0.524 | relative viability (Axitinib + Tozasertib; first compound 0.05 µM): 0.609 | relative viability (Axitinib + Tozasertib; first compound 0.1581 µM): 0.498 | relative viability (Axitinib + Tozasertib; first compound 0.5 µM): 0.675 | relative viability (Bemcentinib + AZD7762; first compound 0.04 µM): 0.684 | relative viability (Bemcentinib + AZD7762; first compound 0.1265 µM): 0.792 | relative viability (Bemcentinib + AZD7762; first compound 0.4 µM): 0.728 | relative viability (Bemcentinib + AZD7762; first compound 1.265 µM): 0.67 | relative viability (Bemcentinib + AZD7762; first compound 4 µM): 0.652
